{
  "source": "ChEMBL document CHEMBL5634134",
  "about": "“Design, synthesis, and biological evaluation of novel 4,4'-bipyridine derivatives acting as CDK9-Cyclin T1 protein-protein interaction inhibitors against triple-negative breast cancer” (Eur J Med Chem, 2023)",
  "key": {"MDA-MB-231 [1]": {"test_system": "MDA-MB-231", "experiment": "Antiproliferative activity against human MDA-MB-231 cells assessed as decrease in sphere size by measuring sphere diameter at 100 nM incubated for 10 days by confocal laser scanning microscopy (reference value: 508.27 micrometer)", "type": "functional", "conditions": "time 10 day"}, "[2]": {"experiment": "Toxicity in mouse assessed as death rate at 750 mg/kg, ip administered for 16 days relative to control", "type": "organism-based", "conditions": "in vivo, time 16 day, read-out: Activity"}, "[3]": {"target": "Cyclin-dependent kinase 1 (Homo sapiens) (UniProt P06493)", "sequence (P06493 whole entry, looked up)": "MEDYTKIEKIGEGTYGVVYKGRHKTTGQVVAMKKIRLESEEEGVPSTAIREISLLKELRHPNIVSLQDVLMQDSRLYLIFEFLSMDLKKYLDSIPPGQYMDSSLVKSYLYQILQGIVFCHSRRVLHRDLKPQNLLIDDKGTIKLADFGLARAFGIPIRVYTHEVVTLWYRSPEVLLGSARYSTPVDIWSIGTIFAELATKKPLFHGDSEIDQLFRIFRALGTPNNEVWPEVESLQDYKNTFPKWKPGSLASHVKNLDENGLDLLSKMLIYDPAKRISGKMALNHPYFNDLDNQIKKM", "experiment": "Binding affinity to CDK1 in human MDA-MB-231 cells asssesed as thermal stabilization at 1 uM incubated for 8 hrs under 45 to 65 degreeC by Western blot analysis", "type": "cell-based"}, "MDA-MB-231 [4]": {"test_system": "MDA-MB-231", "experiment": "Induction of apoptosis in human MDA-MB-231 cells assessed as viable cells at 111 nM incubated for 72 hrs by Annexin V-FITC/PI staining based flow cytometry analysis (reference value: 94.81 %)", "type": "functional", "conditions": "read-out: Activity"}, "MDA-MB-231 [5]": {"test_system": "MDA-MB-231", "experiment": "Induction of apoptosis in human MDA-MB-231 cells assessed as viable cells at 333 nM incubated for 72 hrs by Annexin V-FITC/PI staining based flow cytometry analysis (reference value: 94.81 %)", "type": "functional", "conditions": "read-out: Activity"}, "MDA-MB-231 [6]": {"test_system": "MDA-MB-231", "experiment": "Induction of apoptosis in human MDA-MB-231 cells assessed as necrotic cells at 333 nM incubated for 72 hrs by Annexin V-FITC/PI staining based flow cytometry analysis (reference value: 0.49 %)", "type": "functional"}, "4T1 [7]": {"test_system": "4T1", "experiment": "Antitumor activity against mouse 4T1 cells implanted in athymic BALB/c mouse assessed as tumor inhibition rate at 12.5 mg/kg, ip administered for 14 days relative to control", "type": "functional", "conditions": "4T1, 336 h, time 14 day"}, "[8]": {"experiment": "Toxicity in mouse assessed as increase in body weight at 62.5 to 500 mg/kg, ip administered for 16 days", "type": "organism-based", "conditions": "in vivo, 384 h, dose 62.5-500 mg/kg, time 16 day"}, "4T1 [9]": {"test_system": "4T1", "experiment": "Antitumor activity against mouse 4T1 cells implanted in athymic BALB/c mouse assessed as reduction in tumor weight at 12.5 to 25 mg/kg, ip administered for 14 days", "type": "functional, organism-based", "conditions": "dose 12.5-25 mg/kg, time 14.0 day"}, "MDA-MB-231 [10]": {"test_system": "MDA-MB-231", "experiment": "Induction of apoptosis in human MDA-MB-231 cells assessed as viable cells at 1000 nM incubated for 72 hrs by Annexin V-FITC/PI staining based flow cytometry analysis (reference value: 94.81 %)", "type": "functional", "conditions": "read-out: Activity"}, "MDA-MB-231 [11]": {"test_system": "MDA-MB-231", "experiment": "Induction of apoptosis in human MDA-MB-231 cells assessed as necrotic cells at 1000 nM incubated for 72 hrs by Annexin V-FITC/PI staining based flow cytometry analysis (reference value: 0.49 %)", "type": "functional"}, "[12]": {"experiment": "Cytotoxicity against human MCF-10A cells assessed as inhibition of cell growth incubated for 72 hrs by MTT assay", "type": "toxicity, cell-based"}, "MDA-MB-231 [13]": {"test_system": "MDA-MB-231", "experiment": "Inhibition of cell invasion in human MDA-MB-231 cells incubated for 24 hrs by crystal violet staining based transwell matrix penetration assay", "type": "functional", "conditions": "dose 37-1000 nM"}, "MDA-MB-231 [14]": {"test_system": "MDA-MB-231", "experiment": "Induction of apoptosis in human MDA-MB-231 cells assessed as reduction in Bcl2 level incubated for 24 hrs by Western blot analysis", "type": "functional, cell-based", "conditions": "dose 37-1000 nM"}, "MDA-MB-231 [15]": {"test_system": "MDA-MB-231", "experiment": "Effect on RNA polymerase II phosphorylation at Ser2 residue in human MDA-MB-231 cells transfected with shCDK9 at 300 nM by Western blot analysis", "type": "functional, cell-based"}, "[16]": {"target": "Cyclin-dependent kinase 12 (Homo sapiens) (UniProt Q9NYV4)", "sequence (Q9NYV4 whole entry, looked up)": "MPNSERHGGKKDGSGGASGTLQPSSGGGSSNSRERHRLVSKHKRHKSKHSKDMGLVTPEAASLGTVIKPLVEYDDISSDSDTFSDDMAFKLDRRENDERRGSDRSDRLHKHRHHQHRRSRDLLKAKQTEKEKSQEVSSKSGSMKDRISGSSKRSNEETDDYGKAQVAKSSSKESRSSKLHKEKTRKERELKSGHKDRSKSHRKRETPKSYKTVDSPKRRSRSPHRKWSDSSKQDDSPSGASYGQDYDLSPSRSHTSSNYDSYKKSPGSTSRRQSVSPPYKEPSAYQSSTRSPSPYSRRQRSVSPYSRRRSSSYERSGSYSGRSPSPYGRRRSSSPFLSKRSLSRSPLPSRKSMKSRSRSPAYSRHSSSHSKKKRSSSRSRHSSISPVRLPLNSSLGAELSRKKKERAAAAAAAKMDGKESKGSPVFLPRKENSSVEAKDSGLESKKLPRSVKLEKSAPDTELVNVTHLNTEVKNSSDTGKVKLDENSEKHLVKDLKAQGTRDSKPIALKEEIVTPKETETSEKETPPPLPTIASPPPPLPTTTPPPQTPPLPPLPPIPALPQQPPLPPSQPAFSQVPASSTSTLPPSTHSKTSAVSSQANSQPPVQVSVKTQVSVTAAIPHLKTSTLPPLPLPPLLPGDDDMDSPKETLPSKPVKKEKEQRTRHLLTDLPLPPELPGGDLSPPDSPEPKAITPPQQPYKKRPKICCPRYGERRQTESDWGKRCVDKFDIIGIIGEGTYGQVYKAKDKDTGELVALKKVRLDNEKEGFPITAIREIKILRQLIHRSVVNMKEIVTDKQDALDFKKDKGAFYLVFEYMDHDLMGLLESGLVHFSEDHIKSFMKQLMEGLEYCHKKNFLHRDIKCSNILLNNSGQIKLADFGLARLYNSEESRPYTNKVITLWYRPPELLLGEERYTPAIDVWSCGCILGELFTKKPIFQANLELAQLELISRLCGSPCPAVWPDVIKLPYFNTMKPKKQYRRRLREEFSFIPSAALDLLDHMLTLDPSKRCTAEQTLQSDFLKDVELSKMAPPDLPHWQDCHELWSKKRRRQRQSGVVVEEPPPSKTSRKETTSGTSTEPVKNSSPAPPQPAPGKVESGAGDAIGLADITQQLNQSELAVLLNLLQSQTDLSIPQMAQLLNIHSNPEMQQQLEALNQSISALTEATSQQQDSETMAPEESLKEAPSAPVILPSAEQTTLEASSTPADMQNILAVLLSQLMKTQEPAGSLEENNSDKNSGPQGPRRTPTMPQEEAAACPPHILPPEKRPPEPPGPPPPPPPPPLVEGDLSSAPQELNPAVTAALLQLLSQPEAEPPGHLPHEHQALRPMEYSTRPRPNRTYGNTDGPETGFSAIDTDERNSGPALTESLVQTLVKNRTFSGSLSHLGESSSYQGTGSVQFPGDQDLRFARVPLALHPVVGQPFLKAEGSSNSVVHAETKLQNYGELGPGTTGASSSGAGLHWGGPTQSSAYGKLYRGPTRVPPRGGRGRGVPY", "experiment": "Binding affinity to CDK12 in human MDA-MB-231 cells asssesed as thermal stabilization at 1 uM incubated for 8 hrs under 45 to 65 degreeC by Western blot analysis", "type": "cell-based"}, "MDA-MB-231 [17]": {"test_system": "MDA-MB-231", "experiment": "Antimetastasis activity in human MDA-MB-231 cells assessed as wound closure at 0.1 uM and measured upto 48 hrs by inverted microscope analysis (reference value: 46 %)", "type": "functional"}, "[18]": {"experiment": "Toxicity in mouse assessed as death rate at 1000 mg/kg, ip administered for 16 days relative to control", "type": "organism-based", "conditions": "in vivo, time 16 day, read-out: Activity"}, "[19]": {"experiment": "Cytotoxicity against human L02 cells assessed as inhibition of cell growth incubated for 72 hrs by MTT assay", "type": "toxicity, cell-based"}, "4T1 [20]": {"test_system": "4T1", "experiment": "Antitumor activity against mouse 4T1 cells implanted in athymic BALB/c mouse assessed as increase in cleaved PARP at 12.5 to 25 mg/kg, ip administered once daily for 14 days by Western blot analysis", "type": "functional, organism-based", "conditions": "dose 12.5-25 mg/kg, time 14.0 day"}, "[21]": {"experiment": "Half life in Sprague-Dawley rat at 50 mg/kg, ip measured afer 24 hrs by LC-MS/MS analysis", "type": "ADME, organism-based", "conditions": "in vivo"}, "MDA-MB-231 [22]": {"test_system": "MDA-MB-231", "experiment": "Antiproliferative activity against human MDA-MB-231 cells assessed as decrease in sphere size by measuring diameter at 100 nM incubated for 10 days in presence of olaparib by confocal laser scanning microscopy", "type": "functional", "conditions": "time 10 day"}, "[23]": {"experiment": "Toxicity in mouse assessed as lethal dose administered intraperitoneally for 16 days by Karber's method", "conditions": "in vivo, route ip, time 16 day"}, "MDA-MB-231 [24]": {"test_system": "MDA-MB-231", "experiment": "Induction of apoptosis in human MDA-MB-231 cells assessed as early apoptotic cells at 111 nM incubated for 72 hrs by Annexin V-FITC/PI staining based flow cytometry analysis (reference value: 0.66 %)", "type": "functional"}, "MDA-MB-231 [25]": {"test_system": "MDA-MB-231", "experiment": "Induction of apoptosis in human MDA-MB-231 cells assessed as early apoptotic cells at 1000 nM incubated for 72 hrs by Annexin V-FITC/PI staining based flow cytometry analysis (reference value: 0.66 %)", "type": "functional"}, "[26]": {"experiment": "Toxicity in mouse assessed as median lethal dose administered intraperitoneally for 16 days", "conditions": "in vivo, route ip, time 16 day"}, "MDA-MB-231 [27]": {"test_system": "MDA-MB-231", "experiment": "Inhibition of colony formation in human MDA-MB-231 cells at 20 nM incubated for 10 days in presence of olaparib by crystal violet staining based analysis", "type": "functional, cell-based", "conditions": "time 10.0 day"}, "[28]": {"experiment": "Toxicity in athymic BALB/c mouse implanted with mouse 4T1 cells assessed as lung tissue damage at 12.5 to 25 mg/kg, ip administered for 14 days", "type": "organism-based", "conditions": "in vivo, 336 h, dose 12.5-25 mg/kg, time 14 day"}, "[29]": {"experiment": "Toxicity in athymic BALB/c mouse implanted with mouse 4T1 cells assessed as spleen tissue damage at 12.5 to 25 mg/kg, ip administered for 14 days", "type": "organism-based", "conditions": "in vivo, 336 h, dose 12.5-25 mg/kg, time 14 day"}, "MDA-MB-231 [30]": {"test_system": "MDA-MB-231", "experiment": "Induction of apoptosis in human MDA-MB-231 cells assessed as increase in cleaved PARP-1 protein incubated for 24 hrs by Western blotting analysis", "type": "functional, cell-based", "conditions": "dose 37-1000 nM"}, "MDA-MB-231 [31]": {"test_system": "MDA-MB-231", "experiment": "Inhibition of colony formation in human MDA-MB-231 cells assessed as reduction in colony number incubated for 10 days by crystal violet staining based analysis", "type": "functional, cell-based", "conditions": "dose 12-1000 nM, time 10.0 day"}, "[32]": {"experiment": "MRT (0 to infinity) in Sprague-Dawley rat at 50 mg/kg, ip measured afer 24 hrs by LC-MS/MS analysis", "type": "ADME, organism-based", "conditions": "in vivo"}, "MDA-MB-231 [33]": {"test_system": "MDA-MB-231", "experiment": "Induction of apoptosis in human MDA-MB-231 cells assessed as viable cells at 37 nM incubated for 72 hrs by Annexin V-FITC/PI staining based flow cytometry analysis (reference value: 94.81 %)", "type": "functional", "conditions": "read-out: Activity"}, "[34]": {"experiment": "Toxicity in athymic BALB/c mouse implanted with mouse 4T1 cells assessed as kidney tissue damage at 12.5 to 25 mg/kg, ip administered for 14 days", "type": "organism-based", "conditions": "in vivo, 336 h, dose 12.5-25 mg/kg, time 14 day"}, "[35]": {"experiment": "Toxicity in athymic BALB/c mouse implanted with mouse 4T1 cells assessed as body weight loss at 25 mg/kg, ip administered for 14 days", "type": "organism-based", "conditions": "in vivo, 336 h, time 14 day"}},
  "note": "Calls of active or inactive are those of the source. The calls are words filed in the database; no cut-off is given here.",
  "data": [
    {"smiles": "COc1ccc(C(=O)Nc2cc(-c3ccnc(N4CCC(O)CC4)c3)ccn2)cc1", "values": [
      {"measurement": "Activity", "setting": "MDA-MB-231 [1]", "value": 429.81, "unit": "um"},
      {"measurement": "mortality at 384 h", "setting": "[2]", "value": 40, "unit": "%"},
      {"measurement": "Activity", "setting": "[3]", "value": "inactive"},
      {"measurement": "viability at 0.111 µM", "setting": "MDA-MB-231 [4]", "value": 43.6, "unit": "%"},
      {"measurement": "viability at 0.333 µM", "setting": "MDA-MB-231 [5]", "value": 30.8, "unit": "%"},
      {"measurement": "Activity", "setting": "MDA-MB-231 [6]", "value": 0.25, "unit": "%"},
      {"measurement": "inhibition in vivo at 12.5 mg/kg", "setting": "4T1 [7]", "value": 63.1, "unit": "%"},
      {"measurement": "Activity", "setting": "[8]", "value": "Non-Toxic"},
      {"measurement": "Activity", "setting": "4T1 [9]", "value": "Active"},
      {"measurement": "viability at 1 µM", "setting": "MDA-MB-231 [10]", "value": 14.2, "unit": "%"},
      {"measurement": "Activity", "setting": "MDA-MB-231 [11]", "value": 0, "unit": "%"},
      {"measurement": "IC50 at 72 h", "setting": "[12]", "value": 498, "unit": "nM"},
      {"measurement": "inhibition", "setting": "MDA-MB-231 [13]", "value": "Dose-Dependent Effect"},
      {"measurement": "Activity", "setting": "MDA-MB-231 [14]", "value": "Dose-Dependent Effect"},
      {"measurement": "Activity", "setting": "MDA-MB-231 [15]", "value": "inactive"},
      {"measurement": "Activity", "setting": "[16]", "value": "inactive"},
      {"measurement": "Activity", "setting": "MDA-MB-231 [17]", "value": 18, "unit": "%"},
      {"measurement": "mortality at 384 h", "setting": "[18]", "value": 100, "unit": "%"},
      {"measurement": "IC50 at 72 h", "setting": "[19]", "value": 756, "unit": "nM"},
      {"measurement": "Activity", "setting": "4T1 [20]", "value": "Active"},
      {"measurement": "half-life", "setting": "[21]", "value": 100, "unit": "min"},
      {"measurement": "Activity", "setting": "MDA-MB-231 [22]", "value": 310.56, "unit": "um"},
      {"measurement": "LD50 at 384 h", "setting": "[23]", "value": 537, "unit": "mg/kg"},
      {"measurement": "Activity", "setting": "MDA-MB-231 [24]", "value": 21.3, "unit": "%"},
      {"measurement": "Activity", "setting": "MDA-MB-231 [25]", "value": 14.2, "unit": "%"},
      {"measurement": "LD50 at 384 h", "setting": "[26]", "value": 750, "unit": "mg/kg"},
      {"measurement": "inhibition", "setting": "MDA-MB-231 [27]", "value": "Active"},
      {"measurement": "Activity", "setting": "[28]", "value": "Non-Toxic"},
      {"measurement": "Activity", "setting": "[29]", "value": "Non-Toxic"},
      {"measurement": "Activity", "setting": "MDA-MB-231 [30]", "value": "Dose-Dependent Effect"},
      {"measurement": "inhibition", "setting": "MDA-MB-231 [31]", "value": "Dose-Dependent Effect"},
      {"measurement": "MRT inf", "setting": "[32]", "value": 1.26, "unit": "h"},
      {"measurement": "viability at 0.037 µM", "setting": "MDA-MB-231 [33]", "value": 83.6, "unit": "%"},
      {"measurement": "Activity", "setting": "[34]", "value": "Non-Toxic"},
      {"measurement": "Activity", "setting": "[35]", "value": "Toxic"}
    ]}
  ]
}
